{
  "source": "patent US20090317373A1",
  "about": "“Inhibition of the Anti-FVIII Immune Response” (Institut National De La Sante Et De La Recherche Medicale, priority 2005, published 2009)",
  "molecules": {"B1": {"name": "RAP: receptor-associated protein of 38 kD, blocks endocytosis of ligands by LDL receptor family members such as CD91/LRP (protein, UniProt P30533 35-357, looked up)", "Alpha-2-macroglobulin …": "YSREKNQPKPSPKRESGEEFRMEKLNQLWEKAQRLHLPPVRLAELHADLKIQERDELAWKKLKLDGLDEDGEKEARLIRNLNVILAKYGLDGKKDARQVTSNSLSGTQEDGLDDPRLEKLWHKAKTSGKFSGEELDKLWREFLHHKEKVHEYNVLLETLSRTEEIHENVISPSDLSDIKGSVLHSRHTELKEKLRSINQGLDRLRRVSHQGYSTEAEFEEPRVIDLWDLAQSANLTDKELEAFREELKHFEAKIEKHNHYQKQLEIAHEKLRHAESVGDGERVSRSREKHALLEGRTKELGYTVKKHLQDLSGRISRARHNEL"}},
  "key": {"[1]": {"test_system": "D9E9 (T cell clone specific for FVIII)", "assay": "In vitro activation of FVIII-specific T cell clone D9E9 (IFN-gamma production)", "assay_type": "cell-based, human", "conditions": "antigen presented by DCs; IFNγ production; FIG. 4b", "protocol": "After washing, the DCs of Example 1 were resuspended in DMEM:F12 (1:1) medium containing 10% FCS and 10,000 DCs were introduced into each well of a 96-well cell culture plate with a round base. After incubation with mannan (1 mg/ml) in each well for 30 min, the DCs were cultured with 5,000 D9E9 (T cell clone specific for FVIII) in DMEM:F12 (1:1) medium containing 10% FCS and 20 U/ml of rhIL-2 with various doses of whole FVIII or FVIII-BDD (10, 8, 6, 4, 2 μg/ml) for 20 hours at 37° C. Like the D9E9 cells, the LE2E9 and BO2C11 lines of B cells transformed by EBV were cultured in the presence of 10 μg/ml of whole FVIII or FVIII-BDD. The control conditions were maintained in the absence of FVIII, D9E9 or DCs. As a negative control, hrFIX (Benefix, Baxter) was incubated with the cells at isomolar concentrations of FVIII. The supernatants were harvested at the end of the incubation period and tested for their production of IFNγ using the human IFN-γ Duo Set (DY285, R&D Systems) in accordance with the manufacturer's instructions."}, "[2]": {"test_system": "human DCs derived from monocytes", "assay": "In vitro internalization of fluorescent ligands by human DCs derived from monocytes (flow cytometry)", "assay_type": "cell-based", "protocol": "DCs were prepared from monocytes as described previously (29) with a change in the culture media. Briefly, mononucleated cells were isolated from heparinized leukoplatelet layers (“buffy coats”) from healthy adult donors by adhesion on plastic cell culture dishes in RPMI 1640 medium supplemented with 10% human AB serum, glutamine and antibiotics for 60 minutes. Non-adhering cells were removed by 3 gentle washings with the medium. The adhering monocytes were cultured in X-VIVO 15 medium (Cambrex Bio Sciences, Paris, France) supplemented with 1% human AB serum and antibiotics and in the presence of 500 IU/ml of recombinant human interleukin-4 (rhIL-4), R&D Systems (Lille, France) and 1,000 IU/ml of recombinant human granulocyte macrophage colony-stimulating factor (rhGM-CSF), Immunotools (Friesoythe, Germany). Half of the medium, comprising all the supplements, was replaced every two days. After culture for 5 days, the non-adhering cells and those with little adhesion, corresponding to the fraction enriched in DC, were harvested, washed and used for subsequent experiments.\nWhole recombinant human FVIII (1,000 IU, Kogenate, Bayer) or B domain-deleted recombinant human FVIII (FVIII-BDD) (1,000 IU, Refacto, Wyeth) were solubilized in water and dialyzed against bicarbonate buffer (pH 9.2) containing CaCl2, 5 mM at 4° C., followed by coupling to fluorescein 5-isothiocyanate (isomer I, Sigma-Aldrich, Saint Quentin Fallavier, France) for 7-8 hours at 4° C. The labelled FVIII was then dialyzed against RPMI 1640 medium to remove non-coupled FITC. The FVIII-FITC was quantified by the Bradford method using bovine serum albumin as the standard.\nThe DCs obtained in Example 1 (0.4×10^5 cells/well of a 96-well plate with 100 μl/well) were incubated with various doses (0.029, 0.057, 0.143 and 0.358 μM) of fluorescent conjugated ligands (FVIII-FITC, BDD-FVIII-FITC) obtained in Example 2 in X-VIVO medium for 0, 15, 60 and 120 min at 4° C. or at 37° C. After the incubation period, the cells were washed with cold PBS and analyzed by flow cytometry. To investigate the involvement of receptors in the internalization, the cells were preincubated for 30 min at 37° C. with […] and 1 mg/ml of mannan (Sigma-Aldrich, Saint Quentin Fallavier, France) before the addition of ligands conjugated to fluorescein. In addition to FVIII-FITC and FVIII-BDD-FITC, human α2-macroglobulin-MA (α2M) conjugated to FITC from Biomac (Leipzig, Germany), dextran-FITC (molecular weight 40,000) from Molecular Probes (Leiden, The Netherlands) and Lucifer yellow (LY-CH) from Sigma-Aldrich were used. The investigation of the internalization of FVIII was also carried out in the presence of 20 μg/ml of anti-mannose receptor monoclonal antibody (PAM-1, isotype IgG1) or anti-DC-SIGN monoclonal antibody ((AZN-D1, isotype IgG1) or mouse IgGλ,k conjugated to PE-Cy (BD Pharmingen, France). To investigate whether DC-SIGN is involved in the endocytosis of FVIII, the B lymphocyte line HD-420 transformed by wild-type EBV and transfected with DC-SIGN or not transfected was incubated with various concentrations of FVIII-FITC (0, 0.036, 0.072 and 0.143 μM) for 2 hours in RPMI 1640 medium supplemented with 10% FCS (foetal calf serum) and antibiotics. The analysis was carried out as for the DCs."}, "[3]": {"target": "T1, binding of CTLD(4-7)-Fc to FVIII-BDD (UniProt P00451+Q61830, DEL763-1656)", "T1 construct": "CTLD(4-7)-Fc a gift of Dr L. Martinez-Pomares", "T1 sequence (P00451 with tags, fused parts or gaps DEL763-1656 limits assumed)": "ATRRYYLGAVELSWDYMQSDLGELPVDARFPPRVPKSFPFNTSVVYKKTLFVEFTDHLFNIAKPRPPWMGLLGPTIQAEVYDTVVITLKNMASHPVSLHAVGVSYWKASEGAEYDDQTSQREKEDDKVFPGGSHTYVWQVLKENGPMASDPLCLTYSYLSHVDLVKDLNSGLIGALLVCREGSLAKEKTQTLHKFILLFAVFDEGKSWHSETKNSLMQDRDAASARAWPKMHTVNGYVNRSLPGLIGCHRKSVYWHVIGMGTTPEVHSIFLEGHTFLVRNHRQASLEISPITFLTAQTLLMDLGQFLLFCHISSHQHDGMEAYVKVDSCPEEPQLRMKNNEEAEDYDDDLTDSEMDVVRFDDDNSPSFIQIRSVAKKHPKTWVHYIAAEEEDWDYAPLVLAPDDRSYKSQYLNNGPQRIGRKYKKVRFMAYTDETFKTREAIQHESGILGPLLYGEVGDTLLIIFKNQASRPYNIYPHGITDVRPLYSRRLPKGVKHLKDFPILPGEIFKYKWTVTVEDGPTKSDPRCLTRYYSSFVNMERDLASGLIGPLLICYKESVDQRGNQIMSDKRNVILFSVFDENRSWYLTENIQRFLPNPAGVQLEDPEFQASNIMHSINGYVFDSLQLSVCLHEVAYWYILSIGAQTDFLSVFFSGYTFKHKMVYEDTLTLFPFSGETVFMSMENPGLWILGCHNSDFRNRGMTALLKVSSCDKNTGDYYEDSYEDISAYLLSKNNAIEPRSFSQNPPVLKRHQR", "T1 sequence (P00451 1668-2351 limits assumed)": "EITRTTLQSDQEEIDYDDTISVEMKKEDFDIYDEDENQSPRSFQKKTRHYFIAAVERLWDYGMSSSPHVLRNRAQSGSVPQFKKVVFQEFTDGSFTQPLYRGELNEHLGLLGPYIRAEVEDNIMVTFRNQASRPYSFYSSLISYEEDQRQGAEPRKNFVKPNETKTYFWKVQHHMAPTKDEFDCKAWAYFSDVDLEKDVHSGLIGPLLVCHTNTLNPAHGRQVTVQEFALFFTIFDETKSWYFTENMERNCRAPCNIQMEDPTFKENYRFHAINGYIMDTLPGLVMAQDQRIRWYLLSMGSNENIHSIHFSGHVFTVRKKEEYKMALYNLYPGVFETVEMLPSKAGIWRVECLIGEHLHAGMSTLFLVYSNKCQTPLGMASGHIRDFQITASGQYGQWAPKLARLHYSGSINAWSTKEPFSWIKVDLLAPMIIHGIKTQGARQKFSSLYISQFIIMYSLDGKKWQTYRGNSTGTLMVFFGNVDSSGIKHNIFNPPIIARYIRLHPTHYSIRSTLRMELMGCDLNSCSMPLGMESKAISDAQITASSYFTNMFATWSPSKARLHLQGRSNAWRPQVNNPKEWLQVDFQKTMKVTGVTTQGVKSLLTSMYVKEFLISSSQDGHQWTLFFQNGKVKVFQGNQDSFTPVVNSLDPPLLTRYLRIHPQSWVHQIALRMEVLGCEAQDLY", "T1 sequence (Q61830 20-1456)": "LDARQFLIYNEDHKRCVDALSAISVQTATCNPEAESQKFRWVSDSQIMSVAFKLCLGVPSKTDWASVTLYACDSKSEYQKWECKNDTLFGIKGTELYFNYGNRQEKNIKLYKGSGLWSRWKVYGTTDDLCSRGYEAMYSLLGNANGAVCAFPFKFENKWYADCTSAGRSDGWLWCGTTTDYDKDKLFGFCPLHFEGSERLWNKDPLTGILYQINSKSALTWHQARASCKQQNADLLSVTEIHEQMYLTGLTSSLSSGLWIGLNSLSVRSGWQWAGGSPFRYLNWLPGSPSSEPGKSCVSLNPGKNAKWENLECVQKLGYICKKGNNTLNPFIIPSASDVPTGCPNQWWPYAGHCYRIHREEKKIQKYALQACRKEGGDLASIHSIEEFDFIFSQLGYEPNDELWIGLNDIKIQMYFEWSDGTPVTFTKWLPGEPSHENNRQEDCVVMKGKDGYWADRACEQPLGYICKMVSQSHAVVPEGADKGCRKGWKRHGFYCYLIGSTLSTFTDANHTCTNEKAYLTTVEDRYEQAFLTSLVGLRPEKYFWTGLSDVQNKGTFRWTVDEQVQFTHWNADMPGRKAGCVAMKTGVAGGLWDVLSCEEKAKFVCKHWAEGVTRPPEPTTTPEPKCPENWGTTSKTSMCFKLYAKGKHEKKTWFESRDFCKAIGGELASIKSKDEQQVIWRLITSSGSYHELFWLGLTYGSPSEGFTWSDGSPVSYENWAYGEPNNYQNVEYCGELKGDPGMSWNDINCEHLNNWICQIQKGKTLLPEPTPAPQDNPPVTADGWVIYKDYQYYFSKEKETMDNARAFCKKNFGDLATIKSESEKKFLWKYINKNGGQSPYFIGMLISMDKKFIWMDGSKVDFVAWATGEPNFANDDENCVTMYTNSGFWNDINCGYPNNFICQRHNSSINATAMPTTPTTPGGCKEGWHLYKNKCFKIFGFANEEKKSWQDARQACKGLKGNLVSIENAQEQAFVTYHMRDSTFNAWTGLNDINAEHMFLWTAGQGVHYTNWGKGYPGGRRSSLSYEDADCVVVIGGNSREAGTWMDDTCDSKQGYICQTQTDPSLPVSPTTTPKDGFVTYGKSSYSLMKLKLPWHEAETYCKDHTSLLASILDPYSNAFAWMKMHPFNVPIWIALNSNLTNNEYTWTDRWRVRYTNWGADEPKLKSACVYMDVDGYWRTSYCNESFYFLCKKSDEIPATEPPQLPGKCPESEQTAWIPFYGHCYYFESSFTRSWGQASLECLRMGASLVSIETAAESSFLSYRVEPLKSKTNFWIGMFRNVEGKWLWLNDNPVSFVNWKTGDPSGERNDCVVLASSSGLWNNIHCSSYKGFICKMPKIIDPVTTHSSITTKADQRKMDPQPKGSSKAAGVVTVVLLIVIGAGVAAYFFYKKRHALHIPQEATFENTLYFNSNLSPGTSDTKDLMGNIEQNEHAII", "assay": "ELISA: influence of VWF on binding of CTLD(4-7)-Fc to immobilized FVIII-BDD", "conditions": "soluble VWF in a VWF:FVIII ratio excess; FIG. 9", "protocol": "ELISA plates are coated with FVIII-BDD (5.56 μg/ml, 0.033 μM). VWF (0 to 1 μM) is incubated with 10 μg/ml of the construct CTLD(4-7)-Fc for 30 min at room temperature and added to immobilized FVIII-BDD."}, "[4]": {"conditions": "cells preincubated with 5 mM EDTA"}},
  "data": [
    {"molecule": "FIX: hrFIX (Benefix, Baxter), negative control", "values": [
      {"measurement": "activation of D9E9 cells", "setting": "[1]", "value": "absence of proliferation"}
    ]},
    {"molecule": "O=C(O)CN(CCN(CC(=O)O)CC(=O)O)CC(=O)O", "note": "[EDTA, reference compound]", "values": [
      {"measurement": "inhibition of internalization of FVIII-BDD by immature DCs", "setting": "[2]; [4]", "value": "62.4±11.4", "unit": "%"},
      {"measurement": "inhibition of internalization of whole FVIII by immature DCs", "setting": "[2]; [4]", "value": "58.1±11.1", "unit": "%"}
    ]},
    {"molecule": "VWF: von Willebrand factor (Willefectin, LFB)", "values": [
      {"measurement": "inhibition of interaction of CTLD(4-7)-Fc with immobilized FVIII", "setting": "[3]", "value": 43, "unit": "%"}
    ]},
    {"molecule": "O=C[C@H](O)[C@@H](O)[C@@H](O)[C@H](O)CO", "note": "[D-galactose, reference compound]", "values": [
      {"measurement": "reduction of internalization of FVIII", "setting": "[2]; D-galactose, independently of presence or absence of domain B", "value": "did not significantly reduce"}
    ]},
    {"molecule": "B1", "values": [
      {"measurement": "prevention of endocytosis of FVIII by the DCs", "setting": "[2]; excess of RAP", "value": "did not allow the endocytosis of FVIII by the DCs to be prevented"},
      {"measurement": "inhibition of internalization of α2M", "setting": "[2]; excess of RAP or mannan, FIG. 2f", "value": "inhibited completely"}
    ]}
  ]
}
